{"source": "patent US9504672B2", "about": "“Compositions and methods for treating or preventing pneumovirus infection and associated diseases” (MicroDose Therapeutx, Inc., priority 2012, dated 2016)", "key": {"physchem [1]": {"assay": "physchem", "settings": "25 °C, organic solvent or mixture, thermodynamic from solid"}, "physchem [2]": {"assay": "physchem", "protocol": "Equilibrium solubility of different API forms in aqueous ethanol: This solubility was determined for P-2 and P-3 crystal forms using slurry equilibration and solution concentration measurement with HPLC."}, "[3]": {"assay": "Particle size of micronized material (Sympatec HELOS & RODOS)", "assay_type": "physicochemical"}, "[4]": {"settings": "for Total Imp/Deg: listed as P224-135-2; for number of impurity peaks: listed as P-2", "quoted_text": "Forced degradation experiments consisted of placing solid samples of P-2 hydrate and P-3 dihydrate materials in sealed glass bottles at 120° C. for 7 days."}, "physchem [5]": {"assay": "physchem", "settings": "37 °C, water, thermodynamic from solid"}, "[6]": {"settings": "40° C./75% RH, 4 weeks"}, "[7]": {"assay": "Competitive slurry stability study between P-2 and P-3 (PXRD quantitative phase analysis)", "assay_type": "physicochemical", "settings": "50/50 acetonitrile/water, 25° C."}, "[8]": {"assay": "Bulk powder density and flow indices (volumetric)", "assay_type": "physicochemical"}, "[9]": {"assay": "Specific surface area (BET)", "assay_type": "physicochemical"}, "[10]": {"protocol": "The data are shown for: (a) non-hydrogenated DPPC (Sigma-Aldrich, USA) and (b) hydrogenated DPPC (Lipoid LLC, USA) surfactants at 0.02% w/v concentration. Each data point represents a triplicate sample obtained at temperature 37° C.\nTime-dependent solubility study was carried out in simulated lung fluid (SLF) containing the surfactant dipalmitoylphosphatidylcholine (DPPC). The DPPC is a major surfactant present in the human lung.\nSimulated lung fluid was prepared according to a method described by Moss et al. (Health Physics 1979, v36, 447-448).\nA 0.1% DPPC in water solution was prepared according to a procedure published by Marques et al. (Dissolution Technologies, August 2011). The SLF solution modified with 0.02% DPPC was prepared by diluting the 0.1% DPPC solution with SLF. Refer to NB1181P59-60 for the details on the preparation procedure of SLF and SLF modified with 0.02% DPPC. Two types of DPPC were used in the study. The hydrogenated DPPC was supplied by Lipoid LLC (USA), while the non-hydrogenated DPPC was supplied by Sigma-Aldrich (catalogue # P0763-1G). […] In order to segregate the solid drug substance from the cloudy solution, a dialysis tube (Sigma-Aldrich catalogue # D9277-100FT) was used. A saturated solution of the drug substance in SLF modified with 0.02% DPPC was prepared and carefully transferred into the dialysis tube (˜10 mL in volume). […]"}, "[11]": {"assay": "Critical water activity by DVS sorption/desorption isotherms", "assay_type": "physicochemical", "description": "The characteristic gravimetric loss of water is between 1-4.5% w/w.\nThe characteristic gravimetric loss of water for P-3 dihydrate is between 5.5-8.5% w/w. The profound difference of the DVS curves between the P-2 and P-3 forms can be utilized as a secondary technique for quantitative phase analysis of these forms."}, "[12]": {"description": "Four lots of MDT-637 API were micronized using a 2-inch spiral jet mill.", "remark": "listed apart in the source"}, "[13]": {"assay": "Thermodynamic relationship (hierarchy) of P-2 and P-3 crystal forms", "assay_type": "physicochemical", "settings": "ambient conditions (15-37° C., 40-100% RH)", "description": "FIG. 17 illustrates the thermodynamic relationship (hierarchy) of the P-2 and P-3 families of crystal forms."}, "[14]": {"assay": "Slurry of equal mixture of six phases in 75/25 acetone-water (PXRD)", "assay_type": "physicochemical", "settings": "25° C., 12 days", "protocol": "An equal powder mixture of six known phases (P-2, P-3, P-4, P-6, P-7 and P-8), 50 mg each were stirred in 75/25 acetone-water solvent (50 mL) at 25° C. over 12 days."}, "[15]": {"settings": "human, in vivo", "quoted_text": "Subjects were enrolled in cohorts of 12 subjects. […] The study consisted of 3 visits: Visit 1 (Screening), Visit 2 (Dosing), Visit 3 (Follow up) and subjects remained at the study site for pharmacokinetic (PK) sampling, spirometry, and safety assessments. […] Day 1 was the first day of dosing and Day 10 was the final day of dosing, following which subjects remained at the study site for 24 hours following the last dose for PK sampling and spirometry. Visit 3 was a follow-up visit, 7 to 10 days after the last dose. Cohorts were dosed as follows:\nThe first doses for twice daily (BID) and three times daily (TID) were administered in the morning, starting at approximately 0700 hours on each day of dosing. BID doses were administered at 12 hour intervals and TID doses were administered at 6 hour intervals each dose day.\nPharmacokinetic endpoints (Cmax, Tmax, AUC, T1/2) and dose proportionality was assessed based on a limited number of plasma samples following the first dose on Day 1 and last dose on Day 10\nPharmacokinetic variables (Cmax, Tmax, AUC, T1/2) were evaluated based on blood samples drawn following first dose (Days 1-2) and last dose (Days 10-11)."}, "[16]": {"settings": "human, in vivo", "description": "In summary, the MicroDose Inhaler operation comprises the drug powder contained in a protective blister until delivery. The blister is pierced externally and then placed in contact with a piezoelectric vibrator within the MicroDose Inhaler. When the patient inhales, an airflow sensor automatically turns on the piezo which provides energy to deaggregate the particles of powder and aerosolizes them into the inhalation airstream, providing synchronized delivery. The MicroDose Inhaler was triggered by pressure drop and programmed to produce a series of brief aerosol bursts of predetermined duration within the range of 0.1 to 2.0 seconds, preferably 0.1 seconds, early during each inhalation cycle and for 16 consecutive breaths. The studies were conducted as follows:\nStudy 3: A Double-Blind, Randomized, 3 Period Crossover, Single Ascending Dose Study to Assess the Safety and Tolerability of Inhaled MDT-637 P3 in Subjects with Intermittent or Mild-to-Moderate Persistent Asthma (Asthma Trial)\nThe primary objective of Study 3 was to assess the safety and tolerability of MDT-637 P3 when inhaled by subjects with Intermittent, or Mild-to-Moderate Persistent, Asthma. A secondary objective of Study 3 was to determine the rate and extent of systemic absorption of MDT-637 and trough nasal wash MDT-637 drug concentrations following dry powder inhalation dosing.\nEach subject was dosed on 3 separate days during the study. Each subject received an initial dose of placebo (Period 1), followed by random allocation at Period 2 to a single dose of nasally inhaled MDT-637 P3 or double blind placebo. After an observation and furlough period, subjects returned for Period 3 to receive three doses of study drug (MDT-637 P3 or placebo) over a single day as listed below. The study consisted of 5 visits: Visit 1 (Screening), Visits 2, 3 and 4 (Dosing), and Visit 5 (Follow up); subjects were furloughed from the clinic for 6 up to 14 days between Visits 3 and 4 and 7-8 days between Visit 4 and 5. Subjects who met all of the inclusion criteria and none of the exclusion criteria (Table 19, FIG. 29) at Visit 1 were eligible to return for Visit 2 within 42 days of screening. Subjects were admitted to the study center twice, once for Visit 2 and again for Visit 4. Visit 5, was a safety follow up (outpatient) visit.\nThe doses of MDT-637 P3 were determined based on previous clinical experience in Study 1. Both placebo and active were administered as a dry powder for nasal inhalation via a face mask using a MicroDose Inhaler device. At Visit 2, all 10 patients were dosed with placebo Once Daily. At Visit 3, subjects were randomly allocated so that 8 subjects were dosed with MDT-637 P3 Once Daily 66 mcg and 2 subjects received double blind placebo. At Visit 4, subjects were again randomly allocated so that 8 subjects were dosed with MDT-637 TID 132 mcg and 2 subjects received double blind placebo.\nPharmacokinetic variables (Cmax, Tmax, AUC, T1/2) were evaluated based on blood samples drawn at Visit 4.", "remark": "listed apart in the source"}, "RSV": {"system": "RSV", "settings": "background statement, cited from earlier work"}, "[17]": {"settings": "human, in vivo", "remark": "listed apart in the source", "quoted_text": "The study consisted of 3 visits: Visit 1 (Screening), Visit 2 (Dosing) and Visit 3 (Follow up); subjects furloughed from the clinic between Visits 2 and 3.\nBoth active and matched placebo were administered via face mask inhalation from a proprietary delivery system (MicroDose inhaler).\nSingle doses were administered in the morning. TID doses will be administered at 6 hour intervals, with the 1st of the 3 doses administered in the morning.\nPharmacokinetic variables (Cmax, Tmax, AUC, T1/2) were evaluated based on blood samples drawn at Visit 2."}}, "note": "Where two headings read alike, the source gives them in different places."}
{"smiles": "Cc1nnnn1/N=C/c1ccc(O)c(C(c2ccc(O)cc2)c2cc(/C=N/n3nnnc3C)ccc2O)c1", "note": "[P-2 hydrate, phenol, 2,2′-[(4-hydroxyphenyl)methylene]bis[4-[[(5-methyl-1H-tetrazol-1-yl)imino]methyl]]]", "values": [{"measurement": "solubility", "setting": "physchem [1]", "value": 190, "unit": "µg/mL"}, {"measurement": "equilibrium solubility", "setting": "physchem [2]", "value": 416.5, "unit": "µg/mL"}, {"measurement": "Characteristic medium volume particle size (micronized)", "setting": "[3]", "value": 1.1, "unit": "μm"}, {"measurement": "Grand Total", "setting": "[4]; 120C/7D", "value": 99.8, "unit": "Area %"}, {"measurement": "Total Imp/Deg", "setting": "[4]; 120C/7D", "value": 0.76, "unit": "Area %"}, {"measurement": "Impurity/Degradation Product A", "setting": "[4]; 7 days", "value": 0.07, "unit": "Area %"}, {"measurement": "Impurity/Degradation Product H", "setting": "[4]; 7 days", "value": 0.40, "unit": "Area %"}, {"measurement": "Impurity/Degradation Product I", "setting": "[4]; 7 days", "value": 0.07, "unit": "Area %"}, {"measurement": "Impurity/Degradation Product K", "setting": "[4]; 7 days", "value": 0.16, "unit": "Area %"}, {"measurement": "Impurity/Degradation Product P", "setting": "[4]; 7 days", "value": 0.06, "unit": "Area %"}, {"measurement": "Grand Total", "setting": "[4]; CTRL", "value": 99.9, "unit": "Area %"}, {"measurement": "Total Imp/Deg", "setting": "[4]; CTRL", "value": 0.67, "unit": "Area %"}, {"measurement": "number of impurity peaks", "setting": "[4]; control", "value": 4, "unit": "peaks"}, {"measurement": "number of impurity peaks", "setting": "[4]; stressed sample, 120° C. for 7 days", "value": 5, "unit": "peaks"}, {"measurement": "solubility", "setting": "physchem [5]", "value": "< 6", "unit": "nM"}, {"measurement": "Assay", "setting": "[6]; open dish, listed as P-2", "value": 98.8, "unit": "%"}, {"measurement": "Rel Subs", "setting": "[6]; open dish, listed as P-2", "value": 0.68, "unit": "%"}, {"measurement": "Water", "setting": "[6]; open dish, listed as P-2", "value": 3.5, "unit": "%"}, {"measurement": "change of form / solid-state stability (DSC and PXRD)", "setting": "[6]; open wide glass bottles", "value": "no change of form"}, {"measurement": "chemical stability", "setting": "[6]; open wide glass bottles", "value": "Acceptable chemical stability"}, {"measurement": "composition of slurry for P-2 hydrate", "setting": "[7]; 4 days (50% at day 0)", "value": 77, "unit": "%"}, {"measurement": "composition of slurry for P-2 hydrate", "setting": "[7]; 10 days (50% at day 0)", "value": 85, "unit": "%"}, {"measurement": "Carr index", "setting": "[8]", "value": 16.7, "unit": "%"}, {"measurement": "Hausner ratio", "setting": "[8]", "value": 1.20}, {"measurement": "Poured bulk powder density", "setting": "[8]", "value": 0.16, "unit": "g/mL"}, {"measurement": "Tapped bulk powder density", "setting": "[8]", "value": 0.19, "unit": "g/mL"}, {"measurement": "Specific surface area", "setting": "[9]", "value": 22.6, "unit": "m^2/g"}, {"measurement": "factor by which solubility is lower than that of P-3 dihydrate", "setting": "[10]", "value": "5 to 6"}, {"measurement": "critical water activity for transition between P-2 hydrate and anhydrous forms", "setting": "[11]; 1% RH equilibration steps", "value": "30-40 % RH"}, {"measurement": "Characteristic relative humidity of dehydration (20° C.)", "setting": "[11]; 20° C.", "value": "30-40%"}, {"measurement": "effect of micronization on crystallinity, phase purity, chemical degradation", "setting": "[12]", "value": "did not affect the crystallinity, phase purity"}, {"measurement": "thermodynamic stability", "setting": "[13]", "value": "most stable crystal form"}, {"measurement": "form conversion / stability in six-phase slurry", "setting": "[14]", "value": "most thermodynamically stable form"}]}
{"smiles": "Cc1nnnn1/N=C/c1ccc(O)c(C(c2ccc(O)cc2)c2cc(/C=N/n3nnnc3C)ccc2O)c1", "note": "[MDT-637, phenol, 2,2′-[(4-hydroxyphenyl)methylene]bis[4-[[(5-methyl-1H-tetrazol-1-yl)imino]methyl]]]", "values": [{"measurement": "changes in pulmonary function / pulmonary AEs (serial spirometry)", "setting": "[15]", "value": "no significant changes were observed in pulmonary function or reports of pulmonary adverse events"}, {"measurement": "clinically significant changes in pulmonary function / pulmonary AEs", "setting": "[16]", "value": "no clinically significant changes in pulmonary function or reports of pulmonary adverse events"}, {"measurement": "potency relative to ribavirin", "setting": "RSV", "value": "40,000 times"}, {"measurement": "reduction of RSV viral count", "setting": "RSV; pre- and post-infection", "value": "effective in reducing RSV viral count both pre- and post-infection"}, {"measurement": "clinically significant changes in labs, vital signs, ECGs, physical exams", "setting": "[17]", "value": "no clinically significant changes in pulmonary function, ECG, laboratory values vitals or physical examination"}]}
